Source: PMC4559766 (Scientific Reports, 2015)
Read-outs that look alike come from different tables or passages of the source. Each block holds one molecule with its values, some of them ahead of it. Peptide text beside a SMILES is read from it.

Key:
Du145 transplanted tumor [1] = experiment: Subcutaneous Du145 transplanted tumor in nude mice; type: in vivo, BALB/c-nu/nu nude mice; settings: tail vein once a day for 4 weeks
Description: Thirty male 4-week-old BALB/c-nu/nu nude mice (17–19 g), were divided into five groups. CK group (blank control) was the mice which were not inoculated Du145 cells, and the remaining four groups received inoculation of Du145 cells. 0.2 ml of Du145 cells suspension with the concentration of 1.5 × 10^7 cells/ml was injected subcutaneously into the right side of back of nude mice. […] The weights and volumes of tumors in different groups were measured once every four days, and tumor growth curves for each group were plotted.

Du145 transplanted tumor [2] = experiment: Microvessel density of removed tumors (anti-CD31 immunohistochemistry, Weidner method); type: in vivo, BALB/c-nu/nu nude mice; settings: tumors removed after 4 weeks of administration, anti-CD31, n = 6
Description: Four weeks after administration, the mice were executed, and the tumors of different groups were removed and fixed with 10% neutral formalin or 2.5% glutaraldehyde. The fixed tumor tissue slides were subjected to Hematoxylin-eosin (HE) staining, immunohistochemistry in which anti-CD31 antibody and biotin-labeled IgG were respectively used as the first and second antibody, and TEM analysis. The microvessel densitied (MVD) in different tumor tissues was calculated using the Weidner method.

[3] = Blood biochemical indexes of liver and kidney function in tumor-bearing nude mice; settings: serum at end of 4 weeks of administration, n = 6
Description: (§1) The blood was collected and centrifuged at the end of administration for 4 weeks. The serum was placed into eppendorf (EP) tube and immediately sent to the First Affiliated Hospital of Jinan University where several tests closely related to liver/kidney function were performed, and the blood biochemical indexes AST, ALT, AST/ALT, ALB, GLB, ALB/GLB, DBILI, IBILI, TBILI, BUN and CREA were obtained.

[4] = mouse, in vivo
Description: as §1

[5] = mouse, in vivo; remark: listed apart in the source
Description: (§2) Blood samples were collected by eye bleed from three mice at per time point prior to dosing and from 0.5 to 24 hours postdosing, and the plasma portion was analyzed by using an electrospray ionization, LC/MS/MS method described previously[48]. […] Tri (2-carboxyethyl) phosphine hydrochloride (TCEP) was used as a reducing agent to enhance peptide recovery and was added to all samples at a final concentration of 2 mM. After removing the plasma proteins through adding acetonitrile and centrifugation, the supernatant was transferred to another 96-well plate. Samples were analyzed by LC/MS/MS. Pharmacokinetic parameters were fitted to a two-compartment elimination model, and drug exposure (AUC), elimination half-life (t1⁄2), volume of distribution (Vd) and the clearance (CL) were calculated using WinNonlin Ver.

in vivo = settings: BALB/c, mouse, iv, 5 mg/kg
Description: as §2

HSA = biological target: T1, HSA (Homo sapiens, UniProt P02768); experiment: Phage ELISA of 7-mer peptides for serum albumin binding
T1 construct: purchased Sigma
T1 sequence (P02768 25-609): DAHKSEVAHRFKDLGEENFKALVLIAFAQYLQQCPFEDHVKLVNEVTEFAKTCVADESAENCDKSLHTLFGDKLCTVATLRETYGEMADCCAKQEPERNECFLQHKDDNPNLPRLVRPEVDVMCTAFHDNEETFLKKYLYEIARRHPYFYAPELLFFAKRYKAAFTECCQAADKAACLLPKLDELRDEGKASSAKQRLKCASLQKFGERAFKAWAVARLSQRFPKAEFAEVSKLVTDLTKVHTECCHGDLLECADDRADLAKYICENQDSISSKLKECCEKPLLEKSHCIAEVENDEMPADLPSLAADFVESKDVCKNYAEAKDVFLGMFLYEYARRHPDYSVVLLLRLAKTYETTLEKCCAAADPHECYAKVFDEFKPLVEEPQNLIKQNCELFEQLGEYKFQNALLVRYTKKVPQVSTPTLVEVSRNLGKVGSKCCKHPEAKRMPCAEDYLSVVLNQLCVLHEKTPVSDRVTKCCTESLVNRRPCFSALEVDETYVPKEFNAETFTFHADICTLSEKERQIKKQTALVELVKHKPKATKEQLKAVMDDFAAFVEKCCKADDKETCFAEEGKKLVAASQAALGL
Description: HSA or MSA were dissolved with 0.1 M NaHCO3 to obtain a solution at 100 μg/ml. The obtained solutions were loaded to each row of wells of enzyme-linked immunosorbent assay (ELISA) multiple-well plate, and the plates were blocked with 1% casein in NaHCO3. Each selected phage clone to be identified was subject to 4-fold serial dilution to allow 10^12 phage particles in the first well and 2.4 × 10^5 phage particles in the twelfth well. Each row of the diluted phages was transferred into the plate coated with HSA or MSA by using a mutichannel pipettor, and the plate was incubated at 25 °C for 1.5 hours. After the microtiter plate was repeatedly washed with TBST, bound phages were detected by incubation with Rabbit anti-M13 phage antibody and HRP-conjugated goat anti-rabbit IgG. ABTS/H2O2 substrate was used to measure the amount of HRP bound and monitor the absorbance at 405 nm.

Molecule: C[C@]12CC[C@@H]3c4ccc(OC(=O)N(CCCl)CCCl)cc4CC[C@H]3[C@@H]1CC[C@@H]2O [Estramustine]
body weight change of treated mice (Du145 transplanted tumor [1]; 40 nM RMP16, estramustine 60 mg/kg): reduced obviously | tumor inhibition rate (Du145 transplanted tumor [1]; 0.1 ml of 40 nM RMP16 or P16, estramustine 60 mg/kg, by average tumor weight versus NaCl group, n = 6): 83.03% | microvessel density (MVD) (Du145 transplanted tumor [2]): 8.6 ± 0.83 | ALB [3]: 15.2 ± 0.6 g/L | ALB/GLB [3]: 0.36 ± 0.02 | ALT [3]: 81.5 ± 12.5 U/L | AST [3]: 161 ± 18 U/L | AST/ALT [3]: 1.99 ± 0.09 | CREA [3]: 4 ± 0.3 µM | DBILI [3]: 3.7 ± 0.4 µM | GLB [3]: 42.1 ± 3.7 g/L | IBILI [3]: 7.7 ± 0.2 µM | TBILI [3]: 11.4 ± 0.2 µM

ALB [4]: 17.25 ± 1.35 g/L | ALB/GLB [4]: 0.45 ± 0.02 | BUN [4]: 10.63 ± 0.35 | CREA [4]: 9.5 ± 0.5 µM | DBILI [4]: 3.85 ± 0.25 µM | GLB [4]: 41.75 ± 1.45 g/L | IBILI [4]: 9.75 ± 0.45 µM | TBILI [4]: 13.6 ± 0.2 µM | half-life [5]: 5.77 min | AUC (in vivo): 12300 ng·h/mL | Vd (in vivo): 0.0561 L/kg | clearance (in vivo): 6.75 mL/min/kg | half-life (in vivo): 5.76 min
Molecule: CC[C@H](C)[C@H](NC(=O)[C@H](CCCNC(=N)N)NC(=O)[C@H](CO)NC(=O)[C@@H](NC(=O)[C@@H](NC(=O)[C@H](Cc1c[nH]cn1)NC(=O)[C@@H](NC(=O)[C@H](CC(C)C)NC(=O)[C@@H](N)CC(C)C)[C@@H](C)O)[C@@H](C)O)[C@@H](C)CC)C(=O)N[C@@H](C)C(=O)N[C@H](C(=O)N[C@@H](CO)C(=O)N[C@@H](Cc1ccc(O)cc1)C(=O)N[C@@H](CCC(N)=O)C(=O)N[C@H](C(=O)N[C@@H](CCCCN)C(=O)N[C@H](C(=O)N[C@@H](CC(N)=O)C(=O)N[C@@H](CC(C)C)C(=O)N[C@@H](CC(C)C)C(=O)O)C(C)C)[C@@H](C)O)C(C)C [P16] (H-LLTHTISRIAVSYQTKVNLL-OH)
ALT [4]: 131.5 ± 24.5 U/L | AST [4]: 188.5 ± 29.5 U/L | AST/ALT [4]: 1.45 ± 0.05

Molecule: WQRPSSW
binding affinity to HSA compared with MSA (HSA; phage ELISA, plates coated with HSA or MSA): slightly higher than that of mouse serum albumin | HSA-binding affinity of phage-encoded 7-mer peptide (HSA; sandwich immunoassay (ELISA), 4-fold serial dilution from 10^12 phage particles, absorbance at 405 nm): much higher HSA-binding affinity than HLYWQRP
